Patent US8951580B2, “Methods for improving the safety of treating pediatric patients who are candidates for inhaled nitric oxide treatment” (priority 2009, dated 2015)

Legend:
[1] = tested on: pulmonary vasculature of children with pulmonary hypertension; assay: INOT22 study: acute pulmonary vasodilator testing during cardiac catheterization; conditions: iNO 80 ppm; for SVRI Change From Baseline, Mean / SVRI Change From Baseline, Median / SVRI Change From Baseline, Minimum / SVRI Change From Baseline, maximum / Ratio PVRI/SVRI Change from Baseline, Maximum / Ratio PVRI/SVRI Change from Baseline, Mean / Ratio PVRI/SVRI Change from Baseline, Median / Ratio PVRI/SVRI Change from Baseline, Minimum / Ratio PVRI/SVRI Percent Change from Baseline, Maximum / Ratio PVRI/SVRI Percent Change from Baseline, Mean / Ratio PVRI/SVRI Percent Change from Baseline, Median / Ratio PVRI/SVRI Percent Change from Baseline, Minimum / Ratio PVRI/SVRI Post Treatment, Maximum / Ratio PVRI/SVRI Post Treatment, Mean / Ratio PVRI/SVRI Post Treatment, Median / Ratio PVRI/SVRI Post Treatment, Minimum / SVRI Post-treatment, Mean / SVRI Post-treatment, Median / SVRI Post-treatment, Minimum / SVRI Post-treatment, maximum: ITT, each treatment 10 minutes; for SVRI Change From Baseline, Mean / SVRI Change From Baseline, Median / SVRI Change From Baseline, Minimum / SVRI Change From Baseline, maximum: baseline room air; for tolerability: INOT22 diagnostic study, children with pulmonary hypertension
Experimental: The INOT22 study, entitled “Comparison of supplemental oxygen and nitric oxide for inhalation plus oxygen in the evaluation of the reactivity of the pulmonary vasculature during acute pulmonary vasodilatory testing” was conducted both to assess the safety and effectiveness of INOmax® as a diagnostic agent in patients undergoing assessment of pulmonary hypertension (primary endpoint), and to confirm the hypothesis that iNO is selective for the pulmonary vasculature (secondary endpoint).
In particular, the INOT22 protocol studied consecutive children undergoing cardiac catheterization that were prospectively enrolled at 16 centers in the US and Europe. Inclusion criteria: 4 weeks to 18 years of age, pulmonary hypertension diagnosis, i.e. either idiopathic pulmonary hypertension (IPAH) or related to congenital heart disease (CHD) (repaired or unrepaired) or cardiomyopathy, with pulmonary vascular resistance index (PVRI)>3 u−m^2. Later amendments, as discussed herein, added an additional inclusionary criterion of a PCWP less than 20 mm Hg. Patients were studied under general anaesthesia, or with conscious sedation, according to the practice of the investigator. Exclusion criteria: focal infiltrates on chest X-ray, history of intrinsic lung disease, and/or currently taking PDE-5 inhibitors, prostacyclin analogues or sodium nitroprusside. The study involved supplemental O2 and NO for inhalation plus O2 in the evaluation of the reactivity of the pulmonary vasculature during acute pulmonary vasodilator testing. Consecutive children undergoing cardiac catheterization were prospectively enrolled at 16 centers in the US and Europe. […] A specific secondary endpoint was evaluated in study INOT22 to provide a more definitive evaluation.
The primary objective was to compare the response frequency with iNO and O2 vs. O2 alone; in addition, all subjects were studied with iNO alone. Patients were studied during five periods: Baseline 1, Treatment Period 1, Treatment Period 2, Baseline 2 and Treatment Period 3. All patients received all three treatments; treatment sequence was randomized by center in blocks of 4; in Period 1, patients received either NO alone or O2 alone, and the alternate treatment in Period 3. All patients received the iNO and O2 combination treatment in Period 2. Once the sequence was assigned, treatment was unblinded. Each treatment was given for 10 minutes prior to obtaining hemodynamic measurements, and the Baseline Period 2 was at least 10 minutes.

[2] = tested on: neonates with hypoxic respiratory failure; conditions: n=114, number (%), cited from earlier work
[3] = tested on: term and near-term neonates with pulmonary hypertension and hypoxic respiratory failure; conditions: Inhaled NO n=97; number of patients (%); cited from earlier work

| Molecule | SVRI Change From Baseline, Mean [1] [WU · m^2] | SVRI Change From Baseline, Median [1] [WU · m^2] | SVRI Change From Baseline, Minimum [1] [WU · m^2] | SVRI Change From Baseline, maximum [1] [WU · m^2] | Ratio PVRI/SVRI Change from Baseline, Maximum [1] | Ratio PVRI/SVRI Change from Baseline, Mean [1] | Ratio PVRI/SVRI Change from Baseline, Median [1] | Ratio PVRI/SVRI Change from Baseline, Minimum [1] | Ratio PVRI/SVRI Percent Change from Baseline, Maximum [1] [%] | Ratio PVRI/SVRI Percent Change from Baseline, Mean [1] [%] | Ratio PVRI/SVRI Percent Change from Baseline, Median [1] [%] | Ratio PVRI/SVRI Percent Change from Baseline, Minimum [1] [%] | Ratio PVRI/SVRI Post Treatment, Maximum [1] | Ratio PVRI/SVRI Post Treatment, Mean [1] | Ratio PVRI/SVRI Post Treatment, Median [1] | Ratio PVRI/SVRI Post Treatment, Minimum [1] | SVRI Post-treatment, Mean [1] [WU · m^2] | SVRI Post-treatment, Median [1] [WU · m^2] | SVRI Post-treatment, Minimum [1] [WU · m^2] | SVRI Post-treatment, maximum [1] [WU · m^2] | further results |
| --- | --- | --- | --- | --- | --- | --- | --- | --- | --- | --- | --- | --- | --- | --- | --- | --- | --- | --- | --- | --- | --- |
| O=O [O2, oxygen] | 1.3 | 1.0 | −18.1 | 17.7 | 2.0 | −0.1 | −0.1 | −1.6 | 93.3 | −19.3 | −21.3 | −122.7 | 1.4 | 0.4 | 0.4 | 0.0 | 18.9 | 17.1 | 3.9 | 43.6 | – |
| nitric oxide [NO] | −0.2 | 0.2 | −12.5 | 12.7 | 1.6 | −0.1 | 0.0 | −4.4 | 294.1 | −6.2 | −13.8 | −256.1 | 2.2 | 0.5 | 0.3 | −1.2 | 17.8 | 15.4 | 3.3 | 50.7 | Death or ECMO ([2]; 100% O2 with 20 ppm NO for up to 14 days, primary end point): 52 (46%); Death ([2]; 100% O2 with 20 ppm NO): 16 (14%); ECMO ([2]; 100% O2 with 20 ppm NO): 44 (39%); tolerability [1]: well-tolerated; tolerability ([1]; listed as iNO): well-tolerated in most patients; Adverse Reaction: Atelectasis [3]: 7 (6.5%); Adverse Reaction: Bilirubinemia [3]: 7 (6.5%); Adverse Reaction: Hypokalemia [3]: 9 (8.3%); Adverse Reaction: Hypotension [3]: 6 (5.6%); Adverse Reaction: Thrombocytopenia [3]: 16 (14.8%) |
